What was measured:
[1] = molecular target: T1, BCRP (Homo sapiens, UniProt Q9UNQ0); assay: Transporter mediated assay (substrate/inhibitor), MDCK-II cells; type: in vitro ADME; conditions: BCRP, substrate test, 2 µM
T1 construct: expressed in transfected cells; host or cells: MDCK-II cells
T1 sequence (Q9UNQ0 1-655): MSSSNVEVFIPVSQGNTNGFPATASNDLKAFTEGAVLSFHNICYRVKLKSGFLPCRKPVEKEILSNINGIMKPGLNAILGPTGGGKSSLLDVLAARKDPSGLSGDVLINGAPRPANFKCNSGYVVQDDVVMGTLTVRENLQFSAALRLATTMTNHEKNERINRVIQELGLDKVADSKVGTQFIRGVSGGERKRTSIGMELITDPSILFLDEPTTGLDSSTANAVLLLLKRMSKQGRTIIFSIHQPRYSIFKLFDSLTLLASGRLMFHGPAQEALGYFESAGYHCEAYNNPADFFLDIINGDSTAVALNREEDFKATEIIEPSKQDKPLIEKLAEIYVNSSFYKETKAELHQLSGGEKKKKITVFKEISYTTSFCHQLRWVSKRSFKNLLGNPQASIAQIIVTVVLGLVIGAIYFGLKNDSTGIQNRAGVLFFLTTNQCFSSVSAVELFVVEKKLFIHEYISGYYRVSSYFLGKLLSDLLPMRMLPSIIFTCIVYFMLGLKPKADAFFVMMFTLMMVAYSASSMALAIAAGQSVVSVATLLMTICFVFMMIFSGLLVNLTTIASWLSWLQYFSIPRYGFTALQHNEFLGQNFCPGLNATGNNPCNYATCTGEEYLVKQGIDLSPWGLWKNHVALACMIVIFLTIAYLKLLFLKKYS
Description: (§1) The MDCK-II cells were treated to express the transporter of interest.
(§2) For BCRP and P-gp, the apparent permeability Papp and Efflux Ratio (ER) were calculated [16]. Net basal (B) to apical (A) flux (B → A) of the substrate transport (pmol/min/cm^2) by BCRP or P-gp was calculated by subtracting A → B flux from B → A flux.

[2] = molecular target: T2, P-gp (Homo sapiens, UniProt P08183); assay: as above; type: in vitro ADME; conditions: human, probe quinidine 0.1 μM
T2 construct: expressed in transfected cells; host or cells: MDCK-II cells
Description: as §1, §2

[3] = tested on: HepG2 cells; assay: Mitochondrial toxicity (MT) assay panel; type: cell-based; conditions: HepG2, 100 µM
Description: The assay results were presented as % cell viability. […] After each incubation, the cells were harvested and lysed to test the MT assay panel. The Zalcitabine (positive control) was also included in this assay (Fig 3 in S1 File). The levels of Mitochondrial Oxidative Phosphorylation (OXPHOS) complex 1 (NADH dehydrogenase; ab178011, lot #GR 3339973–1), complex 3 (CytC reductase; ab124537, lot #GR3276896-3), complex 4 (CytC Oxidase; ab179880, lot #GR3273194-1), and complex 5 (ATP synthase; ab124539, lot #GR3267780-4) in the cell lysates were determined using respective indirect ELISA as per manufacturer’s instructions. The total ATP content of the cell lysates was determined using an ATP assay kit (ab83355, lot #GR3314128-2, Abcam, Cambridge, MA). The Caspase 3 content of the cell lysates was determined using the Caspase-3 assay kit (ab39401, lot #GR3322733-1, Abcam, Cambridge, MA). In addition, the total glutathione content was determined using the total glutathione (GSSG/GSH) assay kit (STA-312, lot #09100263, Oxiselect™, San Diego, CA). Using an Oxiselect™ ROS/RNS assay kit (STA-347, lot #7081343, Cell Biolabs Inc. San Diego, CA), the ROS/RNS content of the cell lysates was determined by fluorescence assay.

[4] = tested on: dog hepatocytes; assay: Metabolic stability in hepatocyte; conditions: dog hepatocytes, 10 μM
Description: (§3) CYP3A4 substrate Midazolam (10 μM) was prepared and incubated in the same manner. […] In addition, in vitro half-life (t1/2, min) and intrinsic clearance (CLint, μl/min/10^6 cells) were calculated [10, 11].

[5] = Metabolic stability in hepatocyte; conditions: Beagle, dog, hepatocytes
Description: as §3

[6] = Metabolic stability in liver microsomes; conditions: for % remaining: dog liver microsomes, 10 μM
[7] = tested on: human hepatocytes; assay: Metabolic stability in hepatocyte; conditions: human hepatocytes, 10 μM
Description: as §3

[8] = Metabolic stability in hepatocyte; conditions: human, hepatocytes
Description: as §3

[9] = Metabolic stability in liver microsomes; conditions: for % remaining: monkey liver microsomes, 10 μM
[10] = Stability in the absence of hepatocytes; conditions: no hepatocytes, 10 μM
Description: as §3

[11] = Metabolic stability in liver microsomes
[12] = tested on: rat hepatocytes; assay: Metabolic stability in hepatocyte; conditions: rat hepatocytes, 10 μM
Description: as §3

[13] = Metabolic stability in hepatocyte; conditions: Sprague Dawley, rat, hepatocytes
Description: as §3

[14] = Metabolic stability in liver microsomes; remark: listed apart in the source

T2 sequence (P08183 whole entry): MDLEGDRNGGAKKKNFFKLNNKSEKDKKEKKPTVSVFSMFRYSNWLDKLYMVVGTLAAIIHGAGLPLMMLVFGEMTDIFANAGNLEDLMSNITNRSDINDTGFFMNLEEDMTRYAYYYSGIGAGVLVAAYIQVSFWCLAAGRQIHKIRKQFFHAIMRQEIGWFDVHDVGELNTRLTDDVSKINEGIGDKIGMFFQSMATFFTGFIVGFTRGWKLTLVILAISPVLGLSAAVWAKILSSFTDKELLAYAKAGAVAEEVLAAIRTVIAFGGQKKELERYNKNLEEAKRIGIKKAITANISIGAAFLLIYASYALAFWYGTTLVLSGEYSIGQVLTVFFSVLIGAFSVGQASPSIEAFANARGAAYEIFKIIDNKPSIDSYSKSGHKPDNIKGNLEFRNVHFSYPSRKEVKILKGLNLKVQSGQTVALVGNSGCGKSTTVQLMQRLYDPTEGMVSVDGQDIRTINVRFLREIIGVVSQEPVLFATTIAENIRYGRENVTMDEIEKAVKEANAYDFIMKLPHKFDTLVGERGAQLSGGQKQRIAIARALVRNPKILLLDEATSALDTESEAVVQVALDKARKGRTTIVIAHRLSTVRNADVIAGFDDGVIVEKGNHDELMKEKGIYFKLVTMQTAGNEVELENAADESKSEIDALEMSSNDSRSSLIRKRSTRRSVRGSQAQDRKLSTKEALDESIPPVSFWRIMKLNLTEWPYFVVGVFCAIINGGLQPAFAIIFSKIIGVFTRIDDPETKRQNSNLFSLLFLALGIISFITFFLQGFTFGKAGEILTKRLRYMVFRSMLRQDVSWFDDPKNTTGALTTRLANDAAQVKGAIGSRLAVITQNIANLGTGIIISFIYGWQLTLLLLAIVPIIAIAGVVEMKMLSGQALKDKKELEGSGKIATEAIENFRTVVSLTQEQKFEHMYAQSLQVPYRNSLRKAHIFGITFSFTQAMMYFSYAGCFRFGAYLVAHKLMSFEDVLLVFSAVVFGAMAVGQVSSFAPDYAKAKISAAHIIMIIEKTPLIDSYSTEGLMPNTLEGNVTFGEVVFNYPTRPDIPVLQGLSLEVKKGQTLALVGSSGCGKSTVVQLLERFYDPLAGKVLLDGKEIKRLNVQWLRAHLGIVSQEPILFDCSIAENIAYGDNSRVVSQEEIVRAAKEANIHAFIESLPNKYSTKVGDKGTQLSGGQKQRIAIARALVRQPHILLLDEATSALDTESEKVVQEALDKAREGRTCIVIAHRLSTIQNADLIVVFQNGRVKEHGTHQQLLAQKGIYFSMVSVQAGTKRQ

## COc1cc2nc(N3CCN(C(=O)c4ccco4)CC3)nc(N)c2cc1OC [prazosin, reference compound]
[1]
  Papp A→B at 2 µM: 8.06 ± 0.76 ×10⁻⁶ cm/s
  Papp B→A at 2 µM: 47.7 ± 2.77 ×10⁻⁶ cm/s

## COc1cc2c(cc1OC)CN(CCc1ccc(NC(=O)c3cccc4c(=O)c5cccc(OC)c5[nH]c34)cc1)CC2 [elacridar]
[2]
  inhibition at 3 μM: 98.4 ± 0.53%

## Nc1ccn([C@H]2CC[C@@H](CO)O2)c(=O)n1 [zalcitabine]
[3]; 2-week
  OXPHOS 5 and total ATP levels, caspase 3 or ROS/RNS levels: No significant decrease
  decrease in OXPHOS 1: ~ 80%
  decrease in OXPHOS 3: ~ 20%
  decrease in OXPHOS 4: ~ 70%
[3]; two weeks
  increase in total glutathione content: ~ 35%

## Cc1ncc2n1-c1ccc(Cl)cc1C(c1ccccc1F)=NC2 [Midazolam, reference compound]
[4]; 0 min
  % remaining Vs T = 0 min: 100.0%
[4]; 30 min
  % remaining Vs T = 0 min: 66.6%
[4]; 60 min
  % remaining Vs T = 0 min: 50.8%
[4]; 90 min
  % remaining Vs T = 0 min: 31.2%
[4]; 120 min
  % remaining Vs T = 0 min: 19.5%
[5]
  half-life at 10 μM: 0.855 h
  hepatocyte CLint at 10 μM: 27 µL/min/1e6 cells
[6]; 90 min
  % remaining: 0.0%
[6]; 120 min
  % remaining: 0.0%
[6]; dog, microsomes, pH 7.4
  remaining at 0 h, 10 μM: 100%
  remaining at 0.5 h, 10 μM: 0.3%
  remaining at 1 h, 10 μM: 0.1%
  remaining at 2 h, 10 μM: 95.8%
[7]; 0 min
  % remaining Vs T = 0 min: 100.0%
[7]; 30 min
  % remaining Vs T = 0 min: 91.7%
[7]; 60 min
  % remaining Vs T = 0 min: 85.3%
[7]; 90 min
  % remaining Vs T = 0 min: 80.7%
[7]; 120 min
  % remaining Vs T = 0 min: 72.4%
[8]
  half-life at 10 μM: 4.45 h
  hepatocyte CLint at 10 μM: 5.2 µL/min/1e6 cells
[9]; 60 min
  % remaining: 0.0%
[9]; 90 min
  % remaining: 0.0%
[9]; 120 min
  % remaining: 0.0%
[9]; monkey, microsomes, pH 7.4
  remaining at 0 h, 10 μM: 100%
  remaining at 0.5 h, 10 μM: 0.1%
  remaining at 2 h, 10 μM: 91.8%
[10]; 0 min
  % remaining Vs T = 0 min: 100.0%
[10]; 30 min
  % remaining Vs T = 0 min: 97.7%
[10]; 60 min
  % remaining Vs T = 0 min: 97.6%
[10]; 90 min
  % remaining Vs T = 0 min: 98.6%
[10]; 120 min
  % remaining Vs T = 0 min: 98.5%
[11]; human liver microsomes, 10 μM, 120 min
  % remaining: 0.0%
[11]; human, microsomes, pH 7.4
  remaining at 0 h, 10 μM: 100%
  remaining at 0.5 h, 10 μM: 9.7%
  remaining at 1 h, 10 μM: 1%
  remaining at 1.5 h, 10 μM: 0.2%
  remaining at 2 h, 10 μM: 101%
[12]; 0 min
  % remaining Vs T = 0 min: 100.0%
[12]; 30 min
  % remaining Vs T = 0 min: 89.0%
[12]; 60 min
  % remaining Vs T = 0 min: 77.8%
[12]; 90 min
  % remaining Vs T = 0 min: 70.5%
[12]; 120 min
  % remaining Vs T = 0 min: 65.7%
[13]
  half-life at 10 μM: 3.22 h
  hepatocyte CLint at 10 μM: 7.2 µL/min/1e6 cells
[14]; rat liver microsomes, 10 μM, 120 min
  % remaining: 0.0%
[14]; rat, microsomes, pH 7.4
  remaining at 0 h, 10 μM: 100%
  remaining at 0.5 h, 10 μM: 5.8%
  remaining at 1 h, 10 μM: 0.4%
  remaining at 1.5 h, 10 μM: 0.1%
  remaining at 2 h, 10 μM: 102%

Reference: PMC11649115, “In vitro safety evaluation of dopamine D3R antagonist, R-VK4-116, as a potential medication for the treatment of opioid use disorder” (PLOS ONE, 2024)
